Reference: patent US8012993B2, “Stable S-nitrosothiols, method of synthesis and use” (Lacer, S.A., priority 2006, dated 2011)

Key:
intraocular pressure = test: Alfa-chymotrypsin-induced glaucoma, intraocular pressure; type: in vivo; conditions: glaucoma rabbits; for intraocular pressure, 0 hr / intraocular pressure, 1 hr / intraocular pressure, 2 hr: 3 drops instillation
Method: The method used was that described by Gabriele Campana, Claudio Bucolo, Giovanna Murari and Santi Spampinato in Pharmacol. Exp Therap Vol. 303, Issue 3, 1086-1094, December 2002
Animals were injected with intra muscular injection of dexamethasone at the dose rate of 10 mg/Kg body weight, to avoid immediate inflammation. Animals were anesthetized with ketamine (50 mg/kg IV) in combination with Dizepam.
Xylocalne (4%) was used for local anesthesia topically. A cannula attached to reservoir was inserted into the anterior chamber with the help of a 30 gauge needle to provide a hydrostatic pressure of 25 mmHg during injection of alpha-chymotrypsin. Then a second appropriately shaped 30 gauge needle was introduced near the pupil. Freshly prepared 150 units of alpha chymotrypsin prepared in 0.1 ml of sterile saline was irrigated through the cannula into the posterior chamber. Care was taken to prevent the contact of alpha chymotrypsin with corneal stroma. Both cannulas were carefully removed without significant loss of aqueous humor. Immediately after surgery the eye treated with Sofracort (Corticosteroid) to reduce the chances of fungal or microbial infection.
All the animals were kept under observation for 5 days and after these five days the intraocular pressure (IOP) was measured daily with a Schiontz type indentation tonometer using 5.5 gm weights and by compilation of readings the maximum period required to achieve a stable increase in IOP was determined. […] IOP was measured after 15 days for 3 consecutive days, every morning (at same time) to assure stable IOP.
All the animals were closely observed for the development of glaucoma. Thirty animals showing the symptoms of glaucoma and with the intra ocular pressure more than 30 mmHg were selected for the present investigation.
Compound (R,S)-4-(Acetylamino-ethoxycarbonyl-methyl)-1-methyl-4-S-nitroso-mercapto-piperidinium chloride (example 1g) was administered to a group of rabbits at a concentration of 0.05% by weight [0.05 g in 100 mL of saline serum] by 3 drops instillation. For comparative data, the compound Timolol (Timoftol®) widely used for the treatment of glaucoma, was also administered to another group of rabbits at a concentration of 0.5% by weight.
The intraocular pressure measurements are included in the table 2 in mm Hg taken at 0, 1 and 2 h after 3 drops instillation.

systemic blood pressure = test: Effect of nitrosothiols on systemic blood pressure; type: in vivo, male Wistar rats; conditions: for Mean arterial pressure, Basal: before initiation of the treatment
Method: Fasted male Wistar rats (300-320 g; Janvier, Le Genest St. Isle, France) were anesthetized with sodium pentobarbitone (60 mg/kg i.p.). The effect of treatments on systemic blood pressure was tested. Products dissolved in saline solution and were infused intravenously for 30 minutes at 0.5 ml/h. […] Basal blood pressure was measured before initiation of the treatment and was recorded throughout the treatment period using a pressure transducer connected to the carotid artery. The change in blood pressure was expressed as a % of change vs. basal values.

[1] = Stability study: storage in closed borosilicate glass vial, HPLC analysis; type: physicochemical
[2] = test system: thrombus in arterio-venous shunt; test: Rat arterio-venous shunt silk thread model; type: in vivo, male Wistar rats; conditions: rat AV shunt, perfusion 60 minutes
Method: The activity of the products was assessed in experimental animals in accordance with the European Community Standards on the Care and Use of Laboratory Animals and approved by the Animal Care and Use Committee of local authorities. Two experimental models to test antithrombotic activity in rats were used: Arterio-Venous Shunt and Ferric chloride arterial thrombosis model. Additionally, the effect of the products on the systemic blood pressure was investigated. Fasted male Wistar rats (300-320 g; Janvier, Le Genest St. Isle, France) were anesthetized with sodium pentobarbitone (60 mg/kg i.p.). An arterio-venous (AV) shunt was prepared according to the technique of Umetsu and Sanai (1978). Two 12 cm-long polyethylene tubes (0.85- and 1.27-mm i.d. and o.d., respectively) linked to a central part (6 cm-long; 1.14-mm i.d.) containing a 5-cm cotton thread and filled with […]) saline solution were placed between the right carotid artery and the left jugular vein. All products were given i.v through the jugular vein for 60 minutes. Shunt was placed 45 minutes after the initiation of the perfusion with the testing substances and removed at the end of the perfusion i.e. after 15 min of blood circulation. Cotton thread supporting the thrombus was extracted.

arterial thrombosis = test: Rat arterial thrombosis model (ferric chloride, carotid artery); type: in vivo, male Wistar rats; conditions: i.v. infusion for 30 minutes
Method: The activity of the products was assessed in experimental animals in accordance with the European Community Standards on the Care and Use of Laboratory Animals and approved by the Animal Care and Use Committee of local authorities. Two experimental models to test antithrombotic activity in rats were used: Arterio-Venous Shunt and Ferric chloride arterial thrombosis model. Additionally, the effect of the products on the systemic blood pressure was investigated. Fasted male Wistar rats (300-320 g; Janvier, Le Genest St. Isle, France) were anesthetized with sodium pentobarbital (60 mg/kg i.p.) and thermoregulated by use of blankets (Biosis homeothermic blanket control unit; Biosis, Spain). A segment (approximately 1-cm long) of the left carotid artery was exposed and fitted at the distal end with an appropriately sized Doppler flow probe. Thrombosis was induced by applying a 70% ferric chloride solution embedded patch onto the artery. Blood flow velocity was measured using a Doppler flowmeter (Transonic Systems, San Diego, Calif.) and data recorded using a system for acquisition of data (Acqk). Blood flow was recorded for 60 min post-lesion. When the flow declined to zero, the time in minutes to thrombus formation was noted. The protocol followed was originally described by Feuerstein G Z, et al Artherioscler. Thromb. Vasc. Biol. 1999, 19: 2554-2562 and modified by Kurz K D, et al Thromb. Res. 1990, 60:269-280. The number of animals presenting no occlusion 30 min post-lesion were also noted. Products were dissolved in saline and were given as an i.v. infusion for 30 minutes. ED50 for each product was calculated and results are shown in Table 1 • Anti-thrombotic effect of compounds compared with reference compound in rat arterial thrombosis model after i.v. administration for 30 minutes.

[3] = anesthetized rat, i.v. infusion 30 min, dose 100 times the antithrombotic ED50
[4] = change vs. basal after 30 min i.v. infusion, dose 100 times the antithrombotic ED50
[5] = at 4° C., closed glass vial, no longer stable when it loses more than 5% of initial purity (HPLC)
[6] = at 25° C., closed glass vial, no longer stable when it loses more than 5% of initial purity (HPLC)

SMILES | Mean arterial pressure, Basal (systemic blood pressure; anesthetized rat) [mm Hg] | Mean arterial pressure, After 30 min infusion (systemic blood pressure; [3]) [mm Hg] | Mean arterial pressure, Change (systemic blood pressure; [4]) [%] | time the compound was stable [1, 5] | time the compound was stable [1, 6] | ED50 (anti-thrombotic effect) (arterial thrombosis) | further results
CCOC(=O)C(NC(C)=O)C1(SN=O)CCN(C)CC1.Cl (racemic) [Example 1g, (R,S)-4-(Acetylamino-ethoxycarbonyl-methyl)-1-methyl-4-S-nitrosomercapto-piperidinium chloride] | 115.7 ± 8.3 | 113.6 ± 9.2 | −1.8 | more than 10 months | 2.5 months | 9.1 μg/kg, i.v. | intraocular pressure, 0 hr (intraocular pressure; 0.05% by weight in saline): 34.33 ± 0.68 mm Hg; intraocular pressure, 1 hr (intraocular pressure; 0.05% by weight in saline): 24.72 ± 0.47 mm Hg; intraocular pressure, 2 hr (intraocular pressure; 0.05% by weight in saline): 23.86 ± 0.32 mm Hg; effect on intraocular pressure (in words) (intraocular pressure; 0.05%, 10-fold lower concentration than Timolol): significantly reduces the intraocular pressure; Antithrombotic protection ([2]; dose 2.0 μg/kg i.v.): 54%
CCOC(=O)[C@@H](NS(=O)(=O)c1ccccc1)C1(SN=O)CCN(C)CC1.Cl (racemic) [Example 7 (hydrochloride salt), (R,S)-4-(Benzenesulfonylamino-ethoxycarbonyl-methyl)-1-methyl-4-S-nitrosomercapto-piperidinium chloride] | 117.9 ± 10.2 | – | – | > 6 months | at least 4 months | 56.4 μg/kg, i.v. | Mean arterial pressure, Change (systemic blood pressure; rat, in vivo): +0.8%; Mean arterial pressure, After 30 min infusion (systemic blood pressure; rat, in vivo, iv): 118.8 ± 11.1 mm Hg; Antithrombotic protection ([2]; dose 10.4 μg/kg i.v.): 60%
N[C@@H](CCC(=O)N[C@@H](CSN=O)C(=O)NCC(=O)O)C(=O)O [GSNO, S-nitrosoglutathione, reference compound] | 112.2 ± 6.2 | 98.8 ± 4.1 | −12.0 | – | – | 18.1 μg/kg, i.v. | time the compound was stable ([1]; at 25° C., prior art S-nitrothiol compounds, loss of more than 5% of initial purity): 1 days; Antithrombotic protection ([2]; dose 4.0 μg/kg i.v.): 58%
CC(C)(C)NC[C@H](O)COc1nsnc1N1CCOCC1 [Timolol, reference compound] | – | – | – | – | – | – | intraocular pressure, 0 hr (intraocular pressure; 0.5% by weight): 34.45 ± 0.58 mm Hg; intraocular pressure, 1 hr (intraocular pressure; 0.5% by weight): 24.77 ± 0.26 mm Hg; intraocular pressure, 2 hr (intraocular pressure; 0.5% by weight): 24.54 ± 0.26 mm Hg
CC(=O)NC(C(=O)O)C1(SN=O)CCN(C)CC1 (stereo not drawn) [example 2 of EP 1157987, N-acetyl-2-amino-2[4-(4-S-nitrosomercapto-1-methylpiperidin)]acetic acid, reference compound] | – | 95.1 ± 2.4 | – | – | – | 4.1 μg/kg, i.v. | Antithrombotic protection ([2]; dose 1.7 μg/kg i.v.): 61%
